Data published in patent publication US6914045B2, “Glycopeptide antibiotics” (Wyeth Holdings Corporation, priority 2001, dated 2005).
Values after ≈ are worked out from the molar mass of the structure shown.

Experiments:
Test in all cases: in vitro antibacterial evaluation, MIC by broth dilution
Assay type in all cases: cell-based
[1] = test system: Staphylococcus sp.; conditions: broth dilution, 18 hours at 35° C.
Procedure: (§1) Methods for in vitro Antibacterial Evaluation (Table 1)
(§2) The minimum inhibitory concentration (MIC), the lowest concentration of the antibiotic which inhibits growth of the test organism, is determined by the broth dilution method using Muller-Hinton II […] (Baltimore Biological Laboratories) following the recommendations of the National Committee for Clinical Laboratory Standards [Methods for dilution antimicrobial susceptibility tests for bacteria that grow aerobically, approved standard M7-A2, National Committee for Clinical Laboratory Standards, Villanova, Pa.].
(§3) An inoculum level of 5×10^5 CFU/mL, and a range of antibiotic concentrations (64-0.06 μg/mL) is used. […] The test organisms include a spectrum of Gram-positive bacteria comprised of Staphylococcus sp., Streptococcus sp. and Enterococcus sp. These organisms include recent clinical isolates that are resistant to methicillin, penicillin and/or vancomycin.

[2] = test system: Streptococcus sp.; conditions: broth dilution, 18 hours at 35° C.
Procedure: as §1, §2, §3

[3] = test system: Enterococcus sp.; conditions: broth dilution, 18 hours at 35° C.
Procedure: as §1, §2, §3

[4] = test system: Escherichia coli; conditions: 18 hours at 35° C.

CC(c1ccccc1)C1NC(=O)CNC(=O)C(CO)NC(=O)C(C(O)C2CNC(=N)N2C2OC(CO)C(O)C(O)C2O)NC(=O)C(C(O)C2CNC(=N)N2)NC(=O)C(Cc2ccc(OC3OC(CO)C(OC4OC5COC6(CCSCC6)OC5C(O)C4O)C(O)C3O)cc2)NC1=O (stereo not drawn) [Example 217]
MIC Staphylococcus aureus (ATCC 29213) ([1]; strain ATCC 29213): 4 µg/mL (≈ 2.87 µM)
MIC Staphylococcus aureus (GC 1131) ([1]; strain GC 1131): 4 µg/mL (≈ 2.87 µM)
MIC Staphylococcus aureus (GC 3051) ([1]; strain GC 3051): 4 µg/mL (≈ 2.87 µM)
MIC Staphylococcus aureus (GC 3053) ([1]; strain GC 3053): 8 µg/mL (≈ 5.74 µM)
MIC Staphylococcus aureus (GC 4541) ([1]; strain GC 4541): 4 µg/mL (≈ 2.87 µM)
MIC Staphylococcus aureus (GC 4542) ([1]; strain GC 4542): 4 µg/mL (≈ 2.87 µM)
MIC Staphylococcus aureus-SMITH (GC 4543) ([1]; strain GC 4543): 2 µg/mL (≈ 1.44 µM)
MIC Staphylococcus aureus (GC 4544) ([1]; strain GC 4544): 8 µg/mL (≈ 5.74 µM)
MIC Staphylococcus aureus (GC 4545) ([1]; strain GC 4545): 4 µg/mL (≈ 2.87 µM)
MIC Staphylococcus haemolyticus (GC 4546) ([1]; strain GC 4546): 2 µg/mL (≈ 1.44 µM)
MIC Coagulase Negative Staphylococcus (GC 4547) ([1]; strain GC 4547): 4 µg/mL (≈ 2.87 µM)
MIC Coagulase Negative Staphylococcus (GC 4548) ([1]; strain GC 4548): 1 µg/mL (≈ 0.718 µM)
MIC Coagulase Negative Staphylococcus (GC 4549) ([1]; strain GC 4549): 2 µg/mL (≈ 1.44 µM)
MIC Coagulase Negative Staphylococcus (GC 4551) ([1]; strain GC 4551): 8 µg/mL (≈ 5.74 µM)
MIC Streptococcus agalactiae (GC 4564) [2]: 2 µg/mL (≈ 1.44 µM)
MIC Streptococcus pneumoniae (ATCC 6301) [2]: 1 µg/mL (≈ 0.718 µM)
MIC Streptococcus pneumoniae (GC 1894) [2]: 0.25 µg/mL (≈ 0.179 µM)
MIC Streptococcus pneumoniae (GC 4565) [2]: 0.5 µg/mL (≈ 0.359 µM)
MIC Streptococcus pyogenes (GC 4563) [2]: 1 µg/mL (≈ 0.718 µM)
MIC Streptococcus pneumoniae (ATCC 6301) ([2]; inoculum 5×10^5 CFU/mL, strain ATCC 6301): 1 µg/mL (≈ 0.718 µM)
MIC Streptococcus pneumoniae (GC 1894) ([2]; inoculum 5×10^5 CFU/mL, strain GC 1894): 0.25 µg/mL (≈ 0.179 µM)
MIC Streptococcus pyogenes (GC 4563) ([2]; inoculum 5×10^5 CFU/mL, strain GC 4563): 1 µg/mL (≈ 0.718 µM)
MIC Streptococcus agalactiae (GC 4564) ([2]; inoculum 5×10^5 CFU/mL, strain GC 4564): 2 µg/mL (≈ 1.44 µM)
MIC Streptococcus pneumoniae (GC 4565) ([2]; inoculum 5×10^5 CFU/mL, strain GC 4565): 0.5 µg/mL (≈ 0.359 µM)
MIC Enterococcus avium (GC 4558) [3]: 16 µg/mL (≈ 11.5 µM)
MIC Enterococcus faecalis (ATCC 29212) [3]: 16 µg/mL (≈ 11.5 µM)
MIC Enterococcus faecalis (GC 2242) [3]: 16 µg/mL (≈ 11.5 µM)
MIC Enterococcus faecalis (GC 2691) [3]: 16 µg/mL (≈ 11.5 µM)
MIC Enterococcus faecalis (GC 3059) [3]: 32 µg/mL (≈ 23 µM)
MIC Enterococcus faecalis (GC 4552) [3]: 16 µg/mL (≈ 11.5 µM)
MIC Enterococcus faecalis (GC 4553) [3]: 32 µg/mL (≈ 23 µM)
MIC Enterococcus faecalis (GC 4554) [3]: 32 µg/mL (≈ 23 µM)
MIC Enterococcus faecalis (GC 6189) [3]: 16 µg/mL (≈ 11.5 µM)
MIC Enterococcus faecium (GC 2243) [3]: 16 µg/mL (≈ 11.5 µM)
MIC Enterococcus faecium (GC 4556) [3]: 16 µg/mL (≈ 11.5 µM)
MIC Enterococcus faecium (GC 4557) [3]: 8 µg/mL (≈ 5.74 µM)
MIC Enterococcus faecalis (ATCC 29212) ([3]; inoculum 5×10^5 CFU/mL, strain ATCC 29212): 16 µg/mL (≈ 11.5 µM)
MIC Enterococcus faecalis (GC 2242) ([3]; inoculum 5×10^5 CFU/mL, strain GC 2242): 16 µg/mL (≈ 11.5 µM)
MIC Enterococcus faecium (GC 2243) ([3]; inoculum 5×10^5 CFU/mL, strain GC 2243): 16 µg/mL (≈ 11.5 µM)
MIC Enterococcus faecalis (GC 2691) ([3]; inoculum 5×10^5 CFU/mL, strain GC 2691): 16 µg/mL (≈ 11.5 µM)
MIC Enterococcus faecalis (GC 3059) ([3]; inoculum 5×10^5 CFU/mL, strain GC 3059): 32 µg/mL (≈ 23 µM)
MIC Enterococcus faecalis (GC 4552) ([3]; inoculum 5×10^5 CFU/mL, strain GC 4552): 16 µg/mL (≈ 11.5 µM)
MIC Enterococcus faecalis (GC 4553) ([3]; inoculum 5×10^5 CFU/mL, strain GC 4553): 32 µg/mL (≈ 23 µM)
MIC Enterococcus faecalis (GC 4554) ([3]; inoculum 5×10^5 CFU/mL, strain GC 4554): 32 µg/mL (≈ 23 µM)
MIC Enterococcus faecium (GC 4556) ([3]; inoculum 5×10^5 CFU/mL, strain GC 4556): 16 µg/mL (≈ 11.5 µM)
MIC Enterococcus faecium (GC 4557) ([3]; inoculum 5×10^5 CFU/mL, strain GC 4557): 8 µg/mL (≈ 5.74 µM)
MIC Enterococcus avium (GC 4558) ([3]; inoculum 5×10^5 CFU/mL, strain GC 4558): 16 µg/mL (≈ 11.5 µM)
MIC Enterococcus faecalis (GC 6189) ([3]; inoculum 5×10^5 CFU/mL, strain GC 6189): 16 µg/mL (≈ 11.5 µM)
MIC Escherichia coli (ATCC 25922) [4]: 64 µg/mL (≈ 45.9 µM)
MIC Escherichia coli (GC 4559) [4]: 32 µg/mL (≈ 23 µM)
MIC Escherichia coli (GC 4560) [4]: 2 µg/mL (≈ 1.44 µM)
